Laboratory results as given in US9370515B2, “Mixed lineage kinase inhibitors and method of treatments” (CALIFIA BIO, INC., priority 2013, dated 2016).
“Also recorded” adds a separate entry of the source. Read-outs that look alike come from different tables or passages of the source.

Columns and labels:
MLK-3 = MLK-3 (Homo sapiens, UniProt Q16584); test: Biochemical assay for the inhibition of kinase activity for MLK-3 (33P-ATP, HOTSPOT filter binding); conditions: activated MLK-3 20 nM, ATP 50 μM, myelin basic protein 20 μM, 20 minutes room temperature
How it was run: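 Activated MLK-3 (20 nM) with myelin basic protein (20 μM) in 20 mM Hepes pH 7.5, MgCl2, EGTA, Brij35, BSA, Na3VO4, DTT, 1% DMSO. Started with 33P-ATP at 50 μM ATP, 20 min at room temperature; % activity by HOTSPOT filter binding.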

diverse set of kinases [1] = target: T1, diverse set of kinases (Homo sapiens, UniProt O14920); test: Protein kinase selectivity: IC50 against a diverse set of kinases, compared with URMC-099; format: biochemical; conditions: kinase IKKb
T1 construct: IC50 IKKb; other: kinase IKKb
T1 sequence (O14920 1-756): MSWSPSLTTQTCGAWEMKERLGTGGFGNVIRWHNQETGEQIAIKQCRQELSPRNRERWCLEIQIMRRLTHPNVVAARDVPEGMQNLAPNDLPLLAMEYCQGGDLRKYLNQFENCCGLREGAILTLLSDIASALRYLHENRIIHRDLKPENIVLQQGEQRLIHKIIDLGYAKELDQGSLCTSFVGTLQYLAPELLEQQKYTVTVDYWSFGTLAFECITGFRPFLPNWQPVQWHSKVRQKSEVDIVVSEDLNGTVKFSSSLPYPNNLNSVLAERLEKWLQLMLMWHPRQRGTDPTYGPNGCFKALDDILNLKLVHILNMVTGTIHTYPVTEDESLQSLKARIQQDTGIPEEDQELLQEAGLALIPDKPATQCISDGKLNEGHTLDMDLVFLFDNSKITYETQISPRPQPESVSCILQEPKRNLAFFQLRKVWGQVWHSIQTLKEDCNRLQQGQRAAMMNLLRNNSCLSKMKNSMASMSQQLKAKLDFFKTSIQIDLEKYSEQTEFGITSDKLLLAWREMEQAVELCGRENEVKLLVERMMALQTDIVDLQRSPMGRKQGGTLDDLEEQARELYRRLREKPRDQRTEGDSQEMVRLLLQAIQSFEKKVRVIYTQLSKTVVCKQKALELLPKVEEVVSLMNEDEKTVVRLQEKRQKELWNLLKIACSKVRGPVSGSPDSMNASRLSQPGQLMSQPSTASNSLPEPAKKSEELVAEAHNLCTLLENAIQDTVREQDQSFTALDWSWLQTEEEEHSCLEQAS
From the text: (§1) Protein Kinase Selectivity: MLK-3 inhibitors previously reported in the literature are somewhat promiscuous and inhibit a large number of serine and threonine protein kinases. Compounds of the present invention that show potent inhibition on MLK-3 are very specific for MLK family kinases. […] Journal of Medicinal Chemistry, 2013.

diverse set of kinases [2] = target: T2, diverse set of kinases (Homo sapiens, UniProt O15111); test: as above; format: biochemical; conditions: kinase IKKa
T2 construct: IC50 IKKa; other: kinase IKKa
T2 sequence (O15111 1-745): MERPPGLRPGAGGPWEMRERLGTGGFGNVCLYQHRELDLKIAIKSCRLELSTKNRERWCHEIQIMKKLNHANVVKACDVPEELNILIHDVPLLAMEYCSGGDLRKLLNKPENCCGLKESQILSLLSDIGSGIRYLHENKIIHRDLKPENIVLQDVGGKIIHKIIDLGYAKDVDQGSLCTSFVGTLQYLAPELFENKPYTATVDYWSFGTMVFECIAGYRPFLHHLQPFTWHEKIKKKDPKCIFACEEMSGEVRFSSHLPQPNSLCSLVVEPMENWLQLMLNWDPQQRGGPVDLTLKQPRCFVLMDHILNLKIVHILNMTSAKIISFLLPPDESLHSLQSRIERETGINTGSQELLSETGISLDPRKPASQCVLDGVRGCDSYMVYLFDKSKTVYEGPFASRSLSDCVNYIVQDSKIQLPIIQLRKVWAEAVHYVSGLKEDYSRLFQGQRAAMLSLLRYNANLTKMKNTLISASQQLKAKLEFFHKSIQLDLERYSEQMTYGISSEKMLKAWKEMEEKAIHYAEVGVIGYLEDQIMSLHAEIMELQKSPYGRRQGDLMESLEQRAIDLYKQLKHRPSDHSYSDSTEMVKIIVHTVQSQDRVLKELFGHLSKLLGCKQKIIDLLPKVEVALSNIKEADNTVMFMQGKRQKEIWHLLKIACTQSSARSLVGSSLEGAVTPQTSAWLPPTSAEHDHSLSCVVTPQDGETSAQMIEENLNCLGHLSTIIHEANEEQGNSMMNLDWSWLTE
From the text: as §1

diverse set of kinases [3] = target: diverse set of kinases (Homo sapiens, UniProt P00519, T315I); test: as above; format: biochemical; conditions: kinase ABL1, read-out: IC50 ABL1(T31SI)
From the text: as §1

diverse set of kinases [4] = target: T3, diverse set of kinases (Homo sapiens, UniProt P06213); test: as above; format: biochemical; conditions: kinase IR
T3 construct: IC50 IR; other: kinase IR
From the text: as §1

diverse set of kinases [5] = target: T4, diverse set of kinases (Homo sapiens, UniProt P24941); test: as above; format: biochemical; conditions: kinase CDK2
T4 construct: IC50 CDK2; other: kinase CDK2
From the text: as §1

[6] = Blood brain barrier penetration: standard murine pharmacokinetic model, plasma and brain concentrations; format: in vivo; conditions: mouse; brain concentration 3 hrs after single IV injection 10 mg/kg, CL57 BL/6 mice; read-out: Cbrain 3 hrs
From the text: Compounds disclosed herein may be evaluated in pharmacokinetic assays and models to determine absorption, distribution, metabolism, and excretion parameters. The choice and tailoring of in vitro and ex vivo assays and in vivo models will vary according to the route of administration/formulation, indication under study, properties of test compounds, etc., as well as according to such factors as costs, availability of technology and resources, etc. Such parameters are well known in the fields of pharmacology and drug development. It is within the capacity of one skilled in the art to design and carry out, such work, or to outsource it to a capable third party.
Several compounds disclosed herein were evaluated in a standard murine pharmacokinetic model. […] For ease of analysis compounds were dissolved in 5% DMSO, 40% PEG400, and […] to yield a nominal concentration of 2 mg/mL for intravenous administration. Compounds were administered via a single intravenous (IV) injection in CL57 BL/6 mice at 10 mg/kg in DMSO/PEG400/Saline solution. Three mice in each group were used for blood and brain collection at each time point. Blood samples (300 μL) were collected via the retro-orbital vein predose and at 30, 60 and 180 minutes postdose. Blood samples were placed into tubes containing sodium heparin and centrifuged under refrigerated conditions at 8000 rpm for 6 minutes to separate plasma from the samples. The brain of each animal was collected after the final blood collection. The whole tissue was harvested, excised and rinsed by saline, dried by filter paper, and then placed into one tube per tissue per animal. All samples were stored at −20° C. until bioanalysis. Compound concentrations in plasma and brain homogenate were determined using a high performance liquid chromatography/mass spectrometry (HPLC/MS/MS) methods.

[7] = mice, Goodfellow et al 2013; cited from earlier work
[8] = test system: E18 primary hippocampal neurons; test: Neuroprotection from HIV-1 Tat: hippocampal neurons in microfluidic chambers exposed to Tat-treated BV-2 microglia; format: cell-based; conditions: BV-2 microglia treated with 1 μg/ml HIV-1 Tat; for Axonogenesis in the presence of Tat-activated microglia: compound 100 nM, FIG. 1 arrows
Protocol: FIG. 2 is a graph illustrating the quantification of axon elimination in the presence of HIV tat and certain inhibitors including compounds of the present disclosure. FIG. 3 is a graph illustrating the quantification of axon length in the presence of HIV tat and certain inhibitors including compounds of the present disclosure. Neuroprotection from HIV-1 Tat: E18 primary hippocampal neurons were plated in microfluidic chambers for 7 days in vitro (DIV). These chambers contain a cell body compartment contiguous with a series of 10 um wide, 3 um high, 400 um long microgrooves through which axons grow into a second compartment, fluidically isolated by a hydrostatic pressure gradient. […] Chambers that were exposed to BV-2 microglia treated with Tat alone had almost their entire axonal field destroyed (FIG. 1, brightfield image). […] FIGS. 2 and 3 show quantifications of axon elimination in the presence of HIV tat and Compounds 169, 67, 68 and 175.

Sequence of MLK-3 (Q16584 whole entry): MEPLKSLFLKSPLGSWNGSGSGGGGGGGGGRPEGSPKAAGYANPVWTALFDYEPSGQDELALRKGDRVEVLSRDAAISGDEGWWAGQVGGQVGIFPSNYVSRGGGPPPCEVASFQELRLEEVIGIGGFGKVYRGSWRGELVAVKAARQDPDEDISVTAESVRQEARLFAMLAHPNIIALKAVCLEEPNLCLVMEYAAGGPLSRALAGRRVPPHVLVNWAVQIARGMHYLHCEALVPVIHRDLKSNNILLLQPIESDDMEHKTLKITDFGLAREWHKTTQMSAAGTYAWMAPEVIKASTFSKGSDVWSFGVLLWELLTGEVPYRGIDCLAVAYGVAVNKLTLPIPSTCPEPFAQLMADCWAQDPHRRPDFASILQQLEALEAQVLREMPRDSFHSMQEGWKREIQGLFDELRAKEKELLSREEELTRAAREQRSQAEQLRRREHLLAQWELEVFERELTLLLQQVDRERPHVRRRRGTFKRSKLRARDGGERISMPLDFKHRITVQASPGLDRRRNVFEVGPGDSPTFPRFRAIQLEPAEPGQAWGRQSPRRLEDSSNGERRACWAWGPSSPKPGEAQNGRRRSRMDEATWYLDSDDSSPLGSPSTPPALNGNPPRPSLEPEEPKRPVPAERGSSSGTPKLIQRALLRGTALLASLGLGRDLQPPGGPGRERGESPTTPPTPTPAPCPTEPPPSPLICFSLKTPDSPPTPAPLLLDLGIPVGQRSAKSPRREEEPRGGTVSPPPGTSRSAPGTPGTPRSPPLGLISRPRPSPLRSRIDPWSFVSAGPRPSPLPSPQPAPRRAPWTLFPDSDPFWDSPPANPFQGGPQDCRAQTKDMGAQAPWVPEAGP
T3 sequence (P06213 whole entry): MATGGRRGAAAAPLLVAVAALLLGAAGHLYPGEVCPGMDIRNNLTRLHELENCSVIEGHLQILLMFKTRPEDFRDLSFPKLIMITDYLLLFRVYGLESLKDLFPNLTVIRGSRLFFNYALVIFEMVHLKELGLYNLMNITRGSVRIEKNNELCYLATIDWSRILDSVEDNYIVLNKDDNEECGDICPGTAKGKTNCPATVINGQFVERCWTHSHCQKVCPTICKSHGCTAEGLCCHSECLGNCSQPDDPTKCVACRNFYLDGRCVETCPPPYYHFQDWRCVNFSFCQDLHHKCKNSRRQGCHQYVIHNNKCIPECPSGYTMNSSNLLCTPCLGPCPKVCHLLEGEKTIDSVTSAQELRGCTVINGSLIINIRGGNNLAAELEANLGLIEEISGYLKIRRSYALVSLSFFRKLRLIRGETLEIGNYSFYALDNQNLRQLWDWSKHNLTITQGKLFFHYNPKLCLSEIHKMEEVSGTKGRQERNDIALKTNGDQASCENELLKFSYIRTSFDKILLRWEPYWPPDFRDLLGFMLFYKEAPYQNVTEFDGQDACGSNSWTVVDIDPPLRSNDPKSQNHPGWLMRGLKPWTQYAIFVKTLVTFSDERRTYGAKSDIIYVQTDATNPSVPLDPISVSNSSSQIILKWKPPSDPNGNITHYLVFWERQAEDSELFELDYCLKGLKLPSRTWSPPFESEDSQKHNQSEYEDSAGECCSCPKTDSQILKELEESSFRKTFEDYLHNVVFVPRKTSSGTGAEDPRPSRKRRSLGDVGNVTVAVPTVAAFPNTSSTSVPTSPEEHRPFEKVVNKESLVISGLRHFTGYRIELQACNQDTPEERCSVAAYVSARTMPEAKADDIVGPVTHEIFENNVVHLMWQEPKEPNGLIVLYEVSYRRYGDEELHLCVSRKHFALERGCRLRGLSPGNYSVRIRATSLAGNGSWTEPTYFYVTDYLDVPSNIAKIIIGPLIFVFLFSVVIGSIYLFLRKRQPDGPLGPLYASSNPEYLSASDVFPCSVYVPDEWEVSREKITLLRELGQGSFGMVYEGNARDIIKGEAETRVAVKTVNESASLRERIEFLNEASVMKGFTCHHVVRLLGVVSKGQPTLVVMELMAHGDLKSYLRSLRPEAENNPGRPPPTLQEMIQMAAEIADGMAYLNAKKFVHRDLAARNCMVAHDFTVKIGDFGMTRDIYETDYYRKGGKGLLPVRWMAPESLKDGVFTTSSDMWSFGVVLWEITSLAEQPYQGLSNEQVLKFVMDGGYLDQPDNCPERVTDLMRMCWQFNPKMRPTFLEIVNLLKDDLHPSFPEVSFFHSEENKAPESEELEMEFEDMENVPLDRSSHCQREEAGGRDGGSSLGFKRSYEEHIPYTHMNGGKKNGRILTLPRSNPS

| SMILES | IC50 (MLK-3) | IC50 (diverse set of kinases [1]) | IC50 (diverse set of kinases [2]) | IC50 (diverse set of kinases [3]) | IC50 (diverse set of kinases [4]) | IC50 (diverse set of kinases [5]) | concentration at 3 h [6] | IC50 (diverse set of kinases [3]; read-out: IC50 ABL1) | CNS / blood brain barrier penetration [7] | Axonogenesis in the presence of Tat-activated microglia ([8]; listed as Compound 68) | Axonogenesis in the presence of Tat-activated microglia ([8]; listed as compound 68) | Protection of the axon field ([8]; test compounds 100 nM, 18 hours) |
| --- | --- | --- | --- | --- | --- | --- | --- | --- | --- | --- | --- | --- |
| COc1ccc(Nc2ccc3ncc(-c4cc5ccccc5s4)n3n2)cc1OC [Compound 12, 3-(benzo[b]thiophen-2-yl)-N-(3,4-dimethoxyphenyl)imidazo[1,2-b]pyridazin-6-amine] | 100 to 500 nM | > 10 µM | > 10 µM | > 10 µM | > 10 µM | 19.4 µM | 1280 ng/g | – | – | – | – | – |
| CCSCc1ccc2c(c1)c1c3c(c4c5cc(CSCC)ccc5n5c4c1n2[C@H]1C[C@](O)(C(=O)OC)[C@]5(C)O1)CNC3=O [CEP-1347] | – | – | – | – | – | – | – | – | very poor blood brain barrier penetration; also recorded: poor CNS penetration | – | – | – |
| COc1ccc(Nc2ccc3ncc(-c4cc5cc(OC)c(OC)cc5s4)n3n2)cc1OC [Compound 67, 3-(5,6-dimethoxybenzo[b]thiophen-2-yl)-N-(3,4-dimethoxyphenyl)imidazo[1,2-b]pyridazin-6-amine] | < 100 nM | > 10 µM | > 10 µM | > 10 µM | > 10 µM | > 10 µM | 566 ng/g | – | – | – | – | – |
| COc1ccc(Nc2ccc3ncc(-c4cc5cccc(OC)c5s4)n3n2)cc1OC [Compound 68, 3-(7-methoxybenzo[b]thiophen-2-yl)-N-(3,4-dimethoxyphenyl)imidazo[1,2-b]pyridazin-6-amine] | < 100 nM | > 10 µM | > 10 µM | > 10 µM | > 10 µM | > 10 µM | 1550 ng/g | – | – | continued axonogenesis | promoted continued axonogenesis | – |

Second part, led by results:

| IC50 (MLK-3) | IC50 (diverse set of kinases [1]) | IC50 (diverse set of kinases [2]) | IC50 (diverse set of kinases [3]) | IC50 (diverse set of kinases [4]) | IC50 (diverse set of kinases [5]) | concentration at 3 h [6] | IC50 (diverse set of kinases [3]; read-out: IC50 ABL1) | SMILES | CNS / blood brain barrier penetration [7] | Axonogenesis in the presence of Tat-activated microglia ([8]; listed as Compound 68) | Axonogenesis in the presence of Tat-activated microglia ([8]; listed as compound 68) | Protection of the axon field ([8]; test compounds 100 nM, 18 hours) |
| --- | --- | --- | --- | --- | --- | --- | --- | --- | --- | --- | --- | --- |
| 100 to 500 nM | > 10 µM | > 10 µM | > 10 µM | > 10 µM | 1.03 µM | – | – | O[C@H]1CC[C@H](Nc2ccc3ncc(-c4cc5ccccc5s4)n3n2)CC1 [Compound 105, trans-4-(3-(benzo[b]thiophen-2-yl)imidazo[1,2-b]pyridazin-6-ylamino)cyclohexanol] | – | – | – | – |
| < 100 nM | > 10 µM | > 10 µM | > 10 µM | > 10 µM | > 10 µM | – | – | COc1cccc2cc(-c3cnc4ccc(N[C@H]5CC[C@H](O)CC5)nn34)sc12 [Compound 170, trans-4-(3-(7-methoxybenzo[b]thiophen-2-yl)imidazo[1,2-b]pyridazin-6-ylamino)cyclohexanol] | – | – | – | – |
| < 100 nM | – | – | – | – | – | 1880 ng/g | – | COc1cc2cc(-c3cnc4ccc(N(C)[C@H]5CC[C@H](OC)CC5)nn34)sc2cc1OC [Compound 175, 3-(5,6-dimethoxybenzo[b]thiophen-2-yl)-N-(trans-4-methoxycyclohexyl)-N-methylimidazo[1,2-b]pyridazin-6-amine] | – | – | – | – |
| – | 0.257 µM | 0.591 µM | – | 0.2 µM | 1.18 µM | – | 0.003 µM | CN1CCN(Cc2ccc(-c3cnc4[nH]cc(-c5ccc6[nH]ccc6c5)c4c3)cc2)CC1 [URMC-099, reference compound] | – | – | – | protected the axon field |
| < 100 nM | > 10 µM | > 10 µM | > 10 µM | > 10 µM | 8.26 µM | – | – | COc1cc2cc(-c3cnc4ccc(N[C@H]5CC[C@H](O)CC5)nn34)sc2cc1OC [Compound 169, trans-4-(3-(5,6-dimethoxybenzo[b]thiophen-2-yl)imidazo[1,2-b]pyridazin-6-ylamino)cyclohexanol] | – | – | – | – |
